For assay [1], the system named is HIV-1 (HIV-1 RF, HIV-1 NL4-3) in CEM-SS / MT-2 cells. In words: Cytopathic effect (CPE) inhibition assay (XTT/MTT dye reduction). Type of assay: cell-based. As to the method:
T-cell lines, CEM-SS, and MT-2, and viruses HIV-1 RF and HIV-1 NL4-3 (pNL4-3) were obtained from the National Institutes of Health (AIDS Research and Reference Reagent Program, Bethesda, Md.).
Cytopathic Effect (CPE) Inhibition Assays
The ability of compounds to protect cells against HIV infection was measured by the […] dye reduction method, essentially as described (See Pauwels, R. Balzarini, J. Baba, M. Snoeck, R. Schols, D. Herdewijn, P. Desmyter, J. and De Clercq, E. 1988, “Rapid and automated tetrazolium-based colorimetric assay for the detection of anti-HIV compounds,”. J Virol. Methods., 20: 309–321 and Weislow, O. S. Kiser, R. Fine, D. L. Bader, J. Shoemaker, R. H. and Boyd, M. R. 1989. “New soluble-formazan assay for HIV-1 cytopathic effects: application to high-flux screening of synthetic and natural products for AIDS-antiviral activity”. J. Natl. Cancer Inst. 81:577–586). Subject cells were infected with test virus at an moi of 0.025 to 0.819 or mock infected with medium only and added at 2×10^4 cells per well into 96 well plates containing half-log dilutions of test compounds. Six days later, 50 μl of XTT (1 mg/ml XTT tetrazolium, 0.02 nM phenazine methosulfate) was added to the wells and the plate was reincubated for four hours. Viability, as determined by the amount of XTT formazan produced, was quantified spectrophotometrically by absorbance at 450 nm. Data from CPE assays were expressed as the percent of formazan produced in compound-treated cells compared to formazan produced in wells of uninfected, compound-free cells. The fifty percent effective concentration (EC50) was calculated as the concentration of compound that effected an increase in the percentage of formazan production in infected, compound-treated cells to 50% of that produced by uninfected, compound-free cells. The 50% cytotoxicity concentration (CC50) was calculated as the concentration of compound that decreased the percentage of formazan produced in uninfected, compound-treated cells to 50% of that produced in uninfected, compound-free cells. The therapeutic index was calculated by dividing the cytotoxicity (CC50) by the antiviral activity (EC50).
(In general: Cytopathic effects are the visible damage that an infection or toxin causes in cultured cells.)

Assay [2] has as its target T1, HIV-1 protease (Q7S mutant form) (Human immunodeficiency virus type 1 group M subtype B, UniProt P04585, Q495S).
T1 construct: made in house
In words: HIV-1 Protease RET assay. The assay is classed as biochemical. An outline of the steps: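 Q7S HIV-1 protease, refolded from urea, 2 nM active dimer with 5 μM EDANS/DABCYL peptide cleaved at Tyr-Pro; fluorescence 340/490 nm. 12 min at 37 °C in 0.1M sodium acetate pH 4.8, 1M NaCl, 10% DMSO. Ki from Morrison tight-binding fit.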

Where [3] appears, read: Human immunodeficiency virus 1, NL43, unit inferred, read-out: EC50.
[4] abbreviates: Ave. Ki (nM), RET assay, Q7S enzyme, Morrison tight binding fit.
The mark [5] stands for this setting: Human immunodeficiency virus 1, NL43, read-out: Ave CPE EC50.

Like-named read-outs stand apart in the source and are kept apart here.

`Cc1ccccc1CNC(=O)[C@@H]1C(C(=O)[C@@H](O)[C@H](Cc2ccccc2)NC(=O)c2cccc(O)c2C)[C@@H]2CC[C@@H]1C2` (some centres unmarked): in assay [1] (setting [3]), the EC50 is at least 10000 nM.

For the compound `Cc1ccccc1CNC(=O)[C@H]1C(C(=O)[C@@H](O)[C@H](Cc2ccccc2)NC(=O)c2cccc(O)c2C)[C@@H]2CC[C@@H]1C2` (some centres unmarked), the EC50 in assay [1] (setting [3]) was at least 10000 nM.

In assay [2] (Ki, unit inferred), `Cc1cccc(C)c1OCC(=O)N[C@@H](Cc1ccccc1)[C@H](O)C(=O)N1CSC(C)(C)[C@H]1C(=O)NCc1ccccc1C(F)(F)F` registered a Ki of 1.4 nM. In assay [1] (setting [3]), the EC50 was found to be 1950 nM.

The compound `CC1(C)SCN(C(=O)[C@@H](O)[C@H](Cc2ccccc2)NC(=O)c2cccc3c2CCN3)[C@@H]1C(=O)N[C@@H]1CCOc2ccccc21` came in with an inhibition constant Ki in assay [2] (Ki, unit inferred) of 7.4 nM. In assay [1] (setting [3]), the EC50 is 1960 nM.

In assay [2] (Ki, unit inferred), `Cc1ccccc1CNC(=O)[C@H]1N(C(=O)[C@@H](O)[C@H](Cc2ccccc2)NC(=O)C(F)(F)F)CSC1(C)C` gave a Ki of 17.1 nM. Moreover, the EC50 in assay [1] (setting [3]) was 2200 nM.

Compound `Cc1ccccc1CNC(=O)[C@H]1N(C(=O)[C@@H](O)[C@H](Cc2ccccc2)NC(=O)OC2CC3CCC2C3)CSC1(C)C` (some centres unmarked) came in with a Ki in assay [2] (Ki, unit inferred) of 9.4 nM. In addition, the EC50 in assay [1] (setting [3]) came out at 2880 nM.

In turn, `CC1(C)SCN(C(=O)[C@@H](O)[C@H](Cc2ccccc2)NC(=O)CSc2nc[nH]n2)[C@@H]1C(=O)NCC#N` gave a Ki in assay [2] (Ki, unit inferred) of 28 nM. Also, the EC50 in assay [1] (setting [3]) was at least 3200 nM.

The compound `Cc1ccccc1CNC(=O)C1N(C(=O)[C@@H](O)[C@H](Cc2ccccc2)NC(=O)CSc2nc3ccccc3[nH]2)CSC1(C)C` (some centres unmarked) returned a Ki in assay [2] (Ki, unit inferred) of 17.4 nM. Moreover, the EC50 in assay [1] (setting [3]) was at least 3200 nM.

Consider `Cc1ccccc1CNC(=O)C1N(C(=O)[C@@H](O)[C@H](Cc2ccccc2)NC(=O)CSc2nncn2C)CSC1(C)C` (some centres unmarked), for which the affinity in assay [2] (Ki, unit inferred) corresponds to a Ki of 82 nM. The EC50 in assay [1] (setting [3]) was at least 3200 nM.

In the case of `Cc1ccccc1CNC(=O)[C@H]1N(C(=O)[C@@H](O)[C@H](Cc2ccccc2)NC(=O)COc2cccc3ccccc23)CSC1(C)C`, affinity in assay [2] (Ki, unit inferred) was put at a Ki of 5.8 nM. In addition, the EC50 in assay [1] (setting [3]) was at least 3200 nM.

`Cc1ccccc1CNC(=O)[C@H]1N(C(=O)[C@@H](O)[C@H](Cc2ccccc2)NC(=O)COc2cccc(N3CCOCC3)c2)CSC1(C)C` came in with a Ki in assay [2] (Ki, unit inferred) of 4.4 nM. Further, in assay [1] (setting [3]), the EC50 is at least 3200 nM.

In assay [2] (Ki, unit inferred), `Cc1ccccc1CNC(=O)[C@@H]1C2CCC(CC2)N1C(=O)[C@@H](O)[C@H](Cc1ccccc1)NC(=O)c1cccc(O)c1C` registered a Ki of 9.8 nM. In addition, the EC50 in assay [1] (setting [3]) was at least 3200 nM.

Take `CCCNC(=O)[C@H]1N(C(=O)[C@@H](O)[C@H](Cc2ccccc2)NC(=O)OCCC)CSC1(C)C`: affinity in assay [2] (Ki, unit inferred) was put at a Ki of 12.7 nM. Further, in assay [1] (setting [3]), the EC50 was at least 3200 nM.

Regarding `CCCC(C)C(=O)NC(Cc1ccccc1)[C@H](O)C(=O)N1CSC(C)(C)C1C(=O)NCc1ccccc1C` (some centres unmarked), in assay [2] (Ki, unit inferred), the affinity, expressed as Ki, was 12.6 nM. Moreover, in assay [1] (setting [3]), the EC50 is at least 3200 nM.

In the case of `COc1ccc(CNC(=O)N[C@@H](Cc2ccccc2)[C@H](O)C(=O)N2CSC(C)(C)[C@H]2C(=O)NCc2ccccc2C)cc1OC` [Example B74, (R)-3-{(2S,3S)-3-[3-(3,4Dimethoxy-benzyl)ureido]-2-hydroxy-4-phenyl-butyryl}-5,5-dimethyl-thiazolidine-4-carboxylic acid 2-methyl-benzylamide], the Ki in assay [2] (setting [4]) was determined as 39 nM.

Turning to `Cc1ccccc1CNC(=O)[C@H]1N(C(=O)[C@@H](O)[C@H](Cc2ccccc2)NC(=O)NCc2cccc(C(F)(F)F)c2)CSC1(C)C` [Example B75, (R)-3-{(2S,3S)-2-Hydroxy-4-phenyl-3-[3-(3-trifluoromethyl-benzyl)-ureido]-butyryl}-5,5-dimethyl-thiazolidine-4-carboxylic acid 2-methyl-benzylamide], the Ki in assay [2] (setting [4]) amounted to 81 nM.

`COc1cccc(CNC(=O)N[C@@H](Cc2ccccc2)[C@H](O)C(=O)N2CSC(C)(C)[C@H]2C(=O)NCc2ccccc2C)c1` [Example B76, (R)-3-{(2S,3S)-2-Hydroxy-3-[3-(3-methoxy-benzyl)-ureido]-4-phenyl-butyryl}-5,5-dimethyl-thiazolidine-4-carboxylic acid 2-methyl-benzylamide] yielded a Ki in assay [2] (setting [4]) of 11.2 nM.

For `CC(C)=CCNC(=O)[C@@H]1CC(F)(F)CN1C(=O)[C@@H](O)[C@H](Cc1ccccc1)NC(=O)c1cccc(O)c1C` [Example C9, (S)-4,4-Difluoro-1-((2S,3S)-2-hydroxy-3-{[1-(3-hydroxy-2-methyl-phenyl)-methanoyl]-amino}-4-phenyl-butanoyl)-pyrrolidine-2-carboxylic acid (3-methyl-but-2-enyl)-amide], the Ki in assay [2] (setting [4]) turned out to be 6.3 nM.

In turn, `Cc1c(O)cccc1C(=O)N[C@@H](Cc1ccccc1)[C@H](O)C(=O)N1CC(F)(F)C[C@H]1C(=O)NCc1c(F)cccc1Cl` [Example C14, (S)-4,4-Difluoro-1-[(2S,3S)-2-hydroxy-3-(3-hydroxy-2-methyl-benzoylamino)-4-phenyl-butyryl]-pyrrolidine-2-carboxylic acid 2-chloro-6-fluoro-benzylamide] gave a Ki in assay [2] (setting [4]) of 2.5 nM.

In turn, `Cc1c(O)cccc1C(=O)N[C@@H](Cc1ccccc1)[C@H](O)C(=O)N1CO[C@@H](C)[C@H]1C(=O)N[C@@H]1C=CCCC1` [Example C28, (4S,5S)-3-((2S,3S)-2-Hydroxy-3-{[1-(3-hydroxy-2-methyl-phenyl)-methanoyl]-amino}-4phenyl-butanoyl)-5-methyl-oxazoldine-4-carboxylic acid (S)-cyclohex-2-enylamide] gave a Ki in assay [2] (setting [4]) of 8.4 nM.

In assay [2] (setting [4]), `Cc1ccccc1CNC(=O)[C@@H]1CC(F)(F)CN1C(=O)[C@@H](O)[C@H](Cc1ccccc1)NC(=O)c1c(C)noc1C` [Example C43, 3,5-Dimethyl-isoxazole-4-carboxylic acid {1-benzyl-3-[4,4-difluoro-2-(2-methyl-benzylcarbamoyl)-pyrrolidin-1-yl]-2-hydroxy-3-oxo-propyl}-amide] gave a Ki of 21 nM.

Take `C#CCOC(=O)N[C@@H](Cc1ccccc1)[C@H](O)C(=O)N1CC(F)(F)C[C@H]1C(=O)NCc1ccccc1C` [Example C44, {1-Benzyl-3-[4,4-difluoro-2-(2-methyl-benzylcarbamoyl)-pyrrolidin-1-yl]-2-hydroxy-3-oxo-propyl}-carbamic acid prop-2-ynyl ester]: in assay [2] (setting [4]), the affinity corresponds to a Ki of 14.8 nM.

As to `Cc1ccccc1CNC(=O)[C@@H]1C[C@@H]2CCCC[C@@H]2CN1C(=O)[C@@H](O)[C@H](Cc1ccccc1)NC(=O)c1cccc(O)c1C` [Example C49, (3S,4aS,8aS)-2-((2S,3S)-2-Hydroxy-3-{[1-(3-hydroxy-2-methyl-phenyl)-methanoyl]-amino}-4-phenyl-butanoyl)-decahydro-isoquinoline-3-carboxylic acid 2-methyl-benzylamide], the affinity in assay [2] (setting [4]), expressed as Ki, was 150 nM.

Take `C=CCNC(=O)C1N(C(=O)[C@@H](O)[C@H](Cc2cccc(F)c2)NC(=O)c2cccc(O)c2C)CC(F)(F)C1(C)C` (stereo partly drawn) [Example D2, (R)-3-((2S,3R)-4,4-Difluoro-1-[4(3-fluoro-phenyl)-2-hydroxy-3-(3-hydroxy-2-methyl-benzoylamino)-butyryl])-3,3-dimethyl-pyrrolidine-2-carboxylic acid allyiamide]: the concentration giving a half-maximal response (EC50) in assay [1] (setting [5]) is 16 nM.

For `Cc1c(O)cccc1C(=O)N[C@@H](Cc1cccc(F)c1)[C@H](O)C(=O)N1CC(F)(F)C(C)(C)[C@H]1C(=O)NCC(C)C` [Example D3, (S)-4,4-Difluoro-1-[(2S,3S)-4-(3-fluoro-phenyl)-2-hydroxy-3-(3-hydroxy-2-methyl-benzoylamino)-butyryl]-3,3-dimethyl-pyrrolidine-2-carboxylic acid is butyl-amide], the EC50 in assay [1] (setting [5]) stood at 13 nM.

Turning to `Cc1cc(O)c(C)c(C(=O)N[C@@H](Cc2ccccc2)[C@H](O)C(=O)N2CC(F)(F)C(C)(C)[C@H]2C(=O)NCC(F)(F)F)c1` [Example D6, (S)-4,4-Difluoro-1-[(2S,3S)-2-hydroxy-3-(3-hydroxy-2,5-dimethyl-benzoylamino)-4-phenyl-butyryl]-3,3-dimethyl-pyrrolidine-2-carboxylic acid (2,2,2-trifluoro-ethyl)-amide], the EC50 in assay [1] (setting [5]) is 18 nM.

Compound `CC1(C)SCN(C(=O)[C@@H](O)[C@H](Cc2ccccc2)NC(=O)NCc2ccccc2Cl)C1C(=O)NCc1ccccc1Cl` (some centres unmarked) [drawing 953] yielded a Ki in assay [2] (Ki, unit inferred) of 74 nM.

For the compound `Cc1ccccc1CNC(=O)[C@H]1N(C(=O)[C@@H](O)[C@H](Cc2ccccc2)NC(=O)CCNC(=O)OC(C)(C)C)CSC1(C)C` [drawing 1035], in assay [2] (Ki, unit inferred), affinity was put at a Ki of 94 nM.

Compound `Cc1ccccc1CNC(=O)[C@H]1N(C(=O)[C@@H](O)[C@H](Cc2ccccc2)NC(=O)CCNC(=O)OC(C)(C)C)CSC1(C)C` [drawing 1038] showed a Ki in assay [2] (Ki, unit inferred) of 48 nM.

Usually EC50 stands for the midpoint of the concentration-response curve. The Ki is the equilibrium dissociation constant of an inhibitor or competing ligand from its target. Read a low Ki as a stronger hold on the target.

Values taken from patent publication US7094909B2, “HIV protease inhibitors, compositions containing the same, their pharmaceutical uses and materials for their synthesis” (priority 2001, dated 2006).
